Source: patent US9156860B2, “Boron-containing small molecules” (Anacor Pharmaceuticals, Inc., priority 2011, dated 2015)

Assays:
Format in all cases: in vivo
[1] = test system: adult American dog tick (Dermacentor variabilis); assay: Example 6: efficacy against adult American dog tick infestations on dogs, 48 h and 72 h counts; settings: 50 mg/kg oral
Procedure: […] Twelve (12) male and female beagle dogs were allocated to three treatment groups: Untreated, negative control A; 7 group B; and 7 group C (n=4 dogs per group). Dogs were infested with approximately 50 unfed, adult D. variabilis ticks on Days −1, 5, 12, 19 and 28. For 7 group B dogs, tick counts and classification were conducted at 48 hour post-treatment or post-infestation intervals on Days 2, 7, 14, 21 and 30. For negative control group A and 7 group C dogs, tick counts and classification were conducted at 72 hour post-treatment or post-infestation intervals on Days 3, 8, 15, 22 and 31. On Day 0, dogs in groups B and C were orally administered gelatin capsules containing 7 (50% technical active, 47% microcrystalline cellulose and 3% croscarmellose sodium, w/w) at a point dose of 50 mg/kg. Both 48 hour and 72 hour counts in the treated groups were adjusted to counts from the same 72 hour negative control group. GM percent efficacy of treatments was calculated using the following formula:

[2] = test system: adult American dog tick (Dermacentor variabilis); assay: Example 4: efficacy against adult American dog tick infestations on dogs; settings: for therapeutic efficacy: 24 hour post-treatment
Procedure: The therapeutic (knockdown) and residual efficacy of 7, administered orally at a point dosages of 5 and 25 mg/kg bodyweight, was evaluated against adult American dog tick (D. variabilis) and cat flea (C. felis) infestations on dogs. Sixteen (16) male and female beagle dogs were allocated to one of four treatment groups: Untreated control group (n=4 dogs); 7, 5 mg/kg liquid oral dosage form (n=4 dogs); 7, 25 mg/kg liquid oral dosage form (n=4 dogs); and 7, 25 mg/kg solid oral dosage form. Liquid dosage forms were prepared by dissolving 7 in a solution of 55% polyethylene glycol-300, 35% propylene glycol and 10% water at 25 mg/ml. Solid oral dosage form was prepared by thoroughly mixing 7 with microcrystalline cellulose and croscarmellose sodium (50:47:3, w/w) and placing into size 00 gelatin capsules. On Day 0, all dogs were orally administered 7 at the prescribed point dosages. Twenty-four (24) hours before treatment (Day −1), all dogs were infested with approximately 50 unfed, adult-stage American dog ticks (D. variabilis; approximately 50% male and 50% female). […] For all groups, dogs were re-infested with approximately 50 unfed, adult D. variabilis ticks on Days 5 and 12, with tick classification, counts and removal on Days 7 and 14 (approximately 48 hours after each infestation). For negative control and 7 (25 mg/kg solid oral dosage form) groups, dogs were re-infested with approximately 50 unfed, adult D. variabilis ticks on Days 19 and 28, with tick classification, counts and removal on Days 21 and 30. Immediately following removal of ticks on Day 30, dogs in the negative control and 7 (25 mg/kg solid oral dosage form) groups were infested with approximately 100 unfed, adult cat fleas (C. felis). Flea counts were conducted approximately 48 hours later, on Day 32.
The total number of live ticks or fleas (normal plus moribund classification) present on each dog was determined for each interval, and this number was transformed using the natural logarithm transformation plus one (Ln count+1); addition of one to each count served to adjust for counts that were zero. Geometric mean (GM) group tick or flea counts were obtained via back-transformation of group mean transformed counts and subtracting one. The negative control group was used for comparison to 7 groups for the calculation of percent efficacy (% reduction in live tick or flea counts). GM percent efficacy of treatments was calculated using the following formula: […]

[3] = test system: cat flea (Ctenocephalides felis); assay: Example 4: efficacy against cat flea infestations on dogs; settings: 25 mg/kg oral, solid dosage form, Day 32
Procedure: The therapeutic (knockdown) and residual efficacy of 7, administered orally at a point dosages of 5 and 25 mg/kg bodyweight, was evaluated against adult American dog tick (D. variabilis) and cat flea (C. felis) infestations on dogs. Sixteen (16) male and female beagle dogs were allocated to one of four treatment groups: Untreated control group (n=4 dogs); 7, 5 mg/kg liquid oral dosage form (n=4 dogs); 7, 25 mg/kg liquid oral dosage form (n=4 dogs); and 7, 25 mg/kg solid oral dosage form. Liquid dosage forms were prepared by dissolving 7 in a solution of 55% polyethylene glycol-300, 35% propylene glycol and 10% water at 25 mg/ml. Solid oral dosage form was prepared by thoroughly mixing 7 with microcrystalline cellulose and croscarmellose sodium (50:47:3, w/w) and placing into size 00 gelatin capsules. On Day 0, all dogs were orally administered 7 at the prescribed point dosages. […]
The total number of live ticks or fleas (normal plus moribund classification) present on each dog was determined for each interval, and this number was transformed using the natural logarithm transformation plus one (Ln count+1); addition of one to each count served to adjust for counts that were zero. […] GM percent efficacy of treatments was calculated using the following formula: […]

[4] = 5 mg/kg oral, liquid dosage form, Day 2
[5] = 5 mg/kg oral, liquid dosage form, Day 7
[6] = 5 mg/kg oral, liquid dosage form, Day 14

SMILES: CC1(C)OB(O)c2ccc(C3=NOC(c4cc(Cl)c(Cl)c(Cl)c4)(C(F)(F)F)C3)cc21 (racemic) [Compound 7, 3,3-Dimethyl-5-(5-(3,4,5-trichlorophenyl)-5-(trifluoromethyl)-4,5-dihydroisoxazol-3-yl)benzo[c][1,2]oxaborol-1(3H)-ol]
- Geometric mean group live tick count ([1]; Week 0, 48 h count (Day 2)): 0.3
- Geometric mean group live tick count ([1]; Week 0, 72 h count (Day 3)): 0.0
- % efficacy ([1]; Week 1, 48 h count (Day 7)): (85.1) %
- Geometric mean group live tick count ([1]; Week 1, 48 h count (Day 7)): 2.6
- % efficacy ([1]; Week 1, 72 h count (Day 8)): (100) %
- Geometric mean group live tick count ([1]; Week 1, 72 h count (Day 8)): 0.0
- % efficacy ([1]; Week 2, 48 h count (Day 14)): (78.3) %
- Geometric mean group live tick count ([1]; Week 2, 48 h count (Day 14)): 6.1
- % efficacy ([1]; Week 2, 72 h count (Day 15)): (99.3) %
- Geometric mean group live tick count ([1]; Week 2, 72 h count (Day 15)): 0.2
- % efficacy ([1]; Week 3, 48 h count (Day 21)): (13.0) %
- Geometric mean group live tick count ([1]; Week 3, 48 h count (Day 21)): 10.7
- % efficacy ([1]; Week 3, 72 h count (Day 22)): (100) %
- Geometric mean group live tick count ([1]; Week 3, 72 h count (Day 22)): 0.0
- % efficacy ([1]; Week 4, 48 h count (Day 30)): (35.5) %
- Geometric mean group live tick count ([1]; Week 4, 48 h count (Day 30)): 16.3
- Geometric mean group live tick count ([1]; Week 4, 72 h count (Day 31)): 0.8
- Residual efficacy using 72 hour count intervals ([1]; through week 3 (Day 22)): > 99%
- Residual efficacy at 48 hour intervals ([1]; through week 4 (Day 30)): < 90%
- therapeutic and residual efficacy ([2]; 5 mg/kg liquid oral dosage form, all intervals): < 70%
- % efficacy [2, 4]: (68.2) %
- Geometric mean group live tick count [2, 4]: 10.6
- % efficacy [2, 5]: (0.0) %
- Geometric mean group live tick count [2, 5]: 36.5
- % efficacy [2, 6]: (0.0) %
- Geometric mean group live tick count [2, 6]: 36.8
- therapeutic efficacy ([2]; 25 mg/kg oral, liquid dosage form): 100%
- Geometric mean group live tick count ([2]; 25 mg/kg oral, liquid dosage form, Day 2): 0.0
- Geometric mean group live tick count ([2]; 25 mg/kg oral, liquid dosage form, Day 7): 2.6
- Geometric mean group live tick count ([2]; 25 mg/kg oral, liquid dosage form, Day 14): 16.9
- therapeutic efficacy ([2]; 25 mg/kg oral, solid dosage form): 100%
- Geometric mean group live tick count ([2]; 25 mg/kg oral, solid dosage form, Day 2): 0.0
- Geometric mean group live tick count ([2]; 25 mg/kg oral, solid dosage form, Day 7): 0.7
- Geometric mean group live tick count ([2]; 25 mg/kg oral, solid dosage form, Day 14): 6.3
- Geometric mean group live tick count ([2]; 25 mg/kg oral, solid dosage form, Day 21): 6.8
- Geometric mean group live tick count ([2]; 25 mg/kg oral, solid dosage form, Day 30): 10.7
- Geometric mean group live flea count [3]: 3.9
